Molecules are shown by their SMILES.

The data set is described as follows: Tissue binding assay (equilibrium dialysis), brain homogenate. The class given is in vitro ADME. The following applies: mouse brain homogenate, dialysis 4 hours at 37° C., pH 7.4. As for the experimental part: Buffer preparation. A basic solution was prepared by dissolving 14.2 g/L Na2HPO4 and 8.77 g/L NaCl in deionized H2O. An acidic solution was prepared by dissolving 15.6 g/L NaH2PO4·2H2O and 8.77 g/L NaCl in deionized H2O. Using the acidic solution, the basic solution was then titrated to pH 7.4±0.1 and stored at 4° C. for up to 1 month. The stop solution was 100% CH3CN containing 200 ng/ml tolbutamide, 200 ng/ml labetalol and 50 ng/ml metformin.
Test method. Dialysis membrane strips were soaked in ultra-pure water at room temperature for ~1 hour. Each membrane strip containing 2 membranes was separated and soaked in 20:80 EtOH/H2O (v/v) for ~20 min, after which they were ready for use or were stored in the solution at 2-8° C. for up to 1 month. Prior to the experiment, the membrane was rinsed and soaked for 20 min in ultra-pure water. On the day of experiment, brain homogenate was thawed in a water bath at room temperature and incubated at 37° C. for 10 min before use. Test and control compounds were dissolved in DMSO to achieve 10 mM stock solutions. DMSO working solutions were prepared at 400 μM by diluting 10 μL of stock solution. To prepare the time zero (t=0) samples to be used for recovery determination, 50 μL aliquots of loading matrix were transferred in triplicate to the sample collection plate. The samples were immediately matched with opposite blank buffer to obtain a final volume of 100 μL of 1:1 matrix/dialysis buffer (v/v) in each well. 500 μL of stop solution were added to these t=0 samples. They were then stored at 2-8° C. pending further processes along with other post-dialysis samples. To load the dialysis device, an aliquot of 150 μL of the loading matrix was transferred to the donor side of each dialysis well in triplicate, and 150 μL of the dialysis buffer was loaded to the receiver side of the well. The dialysis plate was placed in a humidified incubator at 37° C. with 5% CO2 on a shaking platform that rotated slowly (about 100 rpm) for 4 hours. At the end of the dialysis, aliquots of 50 μL of samples were taken from both the buffer side and the matrix side of the dialysis device. These samples were transferred into new 96-well plates. Each sample was mixed with an equal volume of opposite blank matrix (buffer or matrix) to reach a final volume of 100 μL of 1:1 matrix/dialysis buffer (v/v) in each well. All samples were further processed by adding 500 μL of stop solution containing internal standards. The mixture was vortexed and centrifuged at 4000 rpm for about 20 min. An aliquot of 100 μL of supernatant of all the samples was then removed for LC-MS/MS analysis. The single blank samples were prepared by transferring 50 μL of blank matrix to a 96-well plate and adding 50 μL of blank PBS buffer to each well. Then the matrix-matched samples were further processed by adding 500 μL of stop solution containing internal standards, following the same sample processing method as the dialysis samples.
Data analysis. The % undiluted unbound, % undiluted bound and % recovery were calculated using the following equations: […]
where F is the analyte concentration or peak area ratio of analyte/internal standard on the buffer (receiver) side of the membrane; T is the analyte concentration or peak area ratio of analyte/internal standard on the matrix (donor) side of the membrane; To is the analyte concentration or the peak area ratio of analyte/internal standard in the loading matrix sample at time zero; and D is the dilution factor determined as 4 in this assay.
A general note: Equilibrium dialysis compares concentrations on both sides of a semipermeable membrane.
The fraction unbound is free concentration divided by total concentration. The low end stands for little free substance, the high end for much free substance. Consider `O=C(N[C@H]1CC[C@H](NCC(F)(F)F)CC1)c1nc(-n2ccnc2)nc2ncccc12` [Example 4, 2-(1H-imidazol-1-yl)-N-((1r,4r)-4-((2,2,2-trifluoroethyl)amino)cyclohexyl)pyrido[2,3-d]pyrimidine-4-carboxamide], for which the fraction unbound at 4 h came out at 0.41.

The compound `O=C(N[C@H]1CC[C@H](N2CCC(F)(F)C2)CC1)c1nc(-n2ccnc2)nn2cccc12` [Example 12, N-((1r,4r)-4-(3,3-difluoropyrrolidin-1-yl)cyclohexyl)-2-(1H-imidazol-1-yl)pyrrolo[2,1-f][1,2,4]triazine-4-carboxamide] returned a fraction unbound at 4 h of 0.068.

The compound `O=C(N[C@H]1CC[C@H](N2CC[C@H](F)C2)CC1)c1nc(-n2ccnc2)nn2cccc12` [Example 13, N-((1S,4r)-4-((S)-3-fluoropyrrolidin-1-yl)cyclohexyl)-2-(1H-imidazol-1-yl)pyrrolo[2,1-f][1,2,4]triazine-4-carboxamide] gave a fraction unbound at 4 h of 0.056.

The compound `O=C(N[C@H]1CC[C@H](N2CC[C@@H](F)C2)CC1)c1nc(-n2ccnc2)nn2cccc12` [Example 14, N-((1R,4r)-4-((R)-3-fluoropyrrolidin-1-yl)cyclohexyl)-2-(1H-imidazol-1-yl)pyrrolo[2,1-f][1,2,4]triazine-4-carboxamide] had a fraction unbound at 4 h of 0.056.

`O=C(N[C@H]1CC[C@H](NCC(F)(F)F)CC1)c1cn2ccnc2c(-n2ccnc2)n1` [Example 19, 8-(1H-imidazol-1-yl)-N-((1r,4r)-4-((2,2,2-trifluoroethyl)amino)cyclohexyl) imidazo[1,2-a]pyrazine-6-carboxamide] showed a fraction unbound at 4 h of 0.25.

The compound `O=C(N[C@H]1CC[C@H](NCC(F)(F)F)CC1)c1cn2ncnc2c(-n2ccnc2)n1` [Example 20, 8-(1H-imidazol-1-yl)-N-((1r,4r)-4-((2,2,2-trifluoroethyl)amino)cyclohexyl)-[1,2,4]triazolo[1,5-a]pyrazine-6-carboxamide] returned a fraction unbound at 4 h of 0.34.

`O=C(N[C@H]1CC[C@H](NCC(F)(F)F)CC1)c1cn2nccc2c(-n2ccnc2)n1` [Example 21, 4-(1H-imidazol-1-yl)-N-((1r,4r)-4-((2,2,2-trifluoroethyl)amino)cyclohexyl)pyrazolo[1,5-a]pyrazine-6-carboxamide] registered a fraction unbound at 4 h of 0.34.

As to `O=C(N[C@H]1CC[C@H](NCC(F)(F)F)CC1)c1nc(-n2ccnc2)nn2cccc12` [Example 29, 2-(1H-imidazol-1-yl)-N-((1r,4r)-4-((2,2,2-trifluoroethyl)amino)cyclohexyl)pyrrolo[2,1-f][1,2,4]triazine-4-carboxamide], the fraction unbound at 4 h was found to be 0.064.

Turning to `O=C(N[C@H]1CC[C@H](N2CCC(F)(F)C2)CC1)c1cn2ccnc2c(-n2ccnc2)n1` [Example 41, N-((1r,4r)-4-(3,3-difluoropyrrolidin-1-yl)cyclohexyl)-8-(1H-imidazol-1-yl) imidazo[1,2-a]pyrazine-6-carboxamide], the fraction unbound at 4 h is 0.15.

Compound `O=C(N[C@H]1CC[C@H](N2CC(F)(F)C2)CC1)c1cn2ncnc2c(-n2ccnc2)n1` [Example 45, N-((1r,4r)-4-(3,3-difluoroazetidin-1-yl)cyclohexyl)-8-(1H-imidazol-1-yl)-[1,2,4]triazolo[1,5-a]pyrazine-6-carboxamide] returned a fraction unbound at 4 h of 0.15.

`O=C(N[C@H]1CC[C@H](N2CCC(F)(F)C2)CC1)c1cn2ncnc2c(-n2ccnc2)n1` [Example 48, N-((1r,4r)-4-(3,3-difluoropyrrolidin-1-yl)cyclohexyl)-8-(1H-imidazol-1-yl)-[1,2,4]triazolo[1,5-a]pyrazine-6-carboxamide]: the fraction unbound at 4 h was 0.15.
